# According to publication PMC2879362, “Design of Group IIA Secreted/Synovial Phospholipase A2 Inhibitors: An Oxadiazolone Derivative Suppresses Chondrocyte Prostaglandin E2 Secretion” (PLoS ONE, 2010):
# Experiments:
# [1] = system: COX-1; assay: Western blot of COX-1 protein level in IL-1β-treated chondrocytes; type: cell-based, rabbit; settings: C8 0.31-1.24 µM in DMEM, IL-1β 20 h
# Experimental: As expected, COX-1 protein was detectable but COX-2 and iNOS proteins were undetectable in untreated control conditions (Fig. 6A). […] Consequently, the protein ratio of COX-1 to COX-2 was not modified by C8 (Fig. 6B). […] Cell lysates were centrifuged for 15 min at 14000 rpm at 4°C and supernatants were collected. Protein concentrations were determined by the Bradford method by use of the Protein Assay dye reagent (Bio-Rad). Protein extracts (20 µg) were size-separated by SDS-PAGE in a 10% (w/v) polyacrylamide gel and electroblotted to a nitrocellulose membrane. Equal protein loading and transfer was confirmed by staining the membrane with Ponceau Red [0.2% (w/v) in H2O:acetic acid 99∶1]. The membrane was sequentially incubated with antibodies against COX-1 (1∶200, Santa Cruz Biotechnology), COX-2 (1∶500, Santa Cruz Biotechnology), iNOS (1∶400, BD Biosciences) or α-tubulin (1∶100, Santa Cruz Biotechnology) and then with peroxidase-conjugated donkey anti-goat IgG (1∶20000) or donkey anti-rabbit IgG (1∶200, both Santa Cruz Biotechnology). Immunocomplexes were detected by an enhanced chemiluminescence kit (Amersham Bioscience). The membrane was stripped by incubation in 0.2 M NaOH between successive immunodetections. Semi-quantitative scanning densitometry involved use of the ImageJ program (NIH, USA).
# [2] = system: COX-1/COX-2 protein ratio; assay: COX-1/COX-2 protein ratio by scanning densitometry of western blots; type: cell-based, rabbit; settings: C8 0.31-1.24 µM in DMEM, IL-1β 20 h
# Source text: As expected, COX-1 protein was detectable but COX-2 and iNOS proteins were undetectable in untreated control conditions (Fig. 6A). […] Consequently, the protein ratio of COX-1 to COX-2 was not modified by C8 (Fig. 6B). […] Results from one representative experiment in five are shown. (B) Intensities of the COX-1 and COX-2 immunoreactive bands evaluated by semi-quantitative scanning densitometry. Data represent the COX-1/COX-2 protein ratio and are expressed as relative arbitrary units, where the IL-1β-treated group represents 1. Values are means ± SEM (n = 5 independent determinations). No significant differences were found between the groups. […] Cell lysates were centrifuged for 15 min at 14000 rpm at 4°C and supernatants were collected. Protein concentrations were determined by the Bradford method by use of the Protein Assay dye reagent (Bio-Rad). Protein extracts (20 µg) were size-separated by SDS-PAGE in a 10% (w/v) polyacrylamide gel and electroblotted to a nitrocellulose membrane. Equal protein loading and transfer was confirmed by staining the membrane with Ponceau Red [0.2% (w/v) in H2O:acetic acid 99∶1]. […] Immunocomplexes were detected by an enhanced chemiluminescence kit (Amersham Bioscience). […] Semi-quantitative scanning densitometry involved use of the ImageJ program (NIH, USA).
smiles,measurement,setting,value
O=c1[nH]c(Cc2ccc(OCCCCCOc3cc4ccccc4c4ccccc34)cc2)no1 [C8],effect on COX-1 protein level,[1],did not alter
same,effect on protein ratio of COX-1 to COX-2,[2],not modified
